Test results as given in US11300509B2, “Cleavable linkers for protein translation reporting” (9412-1126 Québec inc., priority 2020, dated 2022).
No end group written: not given here.

Key:
Cherry1-10 = molecular target: T1, Cherry1-10 (Discosoma sp., UniProt Q9U6Y8, A164R/C117E/F124L/F177V/H162N/H41T/I125L/I180T/K163Q/K83L/K92T/L150M/L174D/M182K/N42Q/Q66M/R153E/R17H/R36H/S179T/S197I/T21S/V127T/V156A/V175A/V44A/V71A/Y192A/Y194N); assay: In vitro reconstitution of split Cherry: Cherry11 peptide mixed with Cherry1-10; type: binding
T1 construct: made in house; host or cells: Escherichia coli BL21(DE3)
Method: Fluorescence output was recorded every 0.1 seconds for a duration of 30 seconds.
In vitro fluorescence complementation was performed by mixing purified XFP1-10 protein and chemically synthesized XFP11 peptides and the fluorescence intensity of the reaction was collected with a StepOnePlus real-time thermal cycler (Thermo-Fisher). […] XFP1-10 in TNG buffer or PBS (varied pH) was added to wells of a 96-well microplate coated with 1 mM bovine serum albumin and allowed to equilibrate for 60 seconds. XFP11 peptide was added according to different final peptide concentrations and the microplate was immediately loaded into the fluorescence reader. The fluorescence intensity was measured every 10 seconds for 45 minutes at 32° C. or 37° C. with 495 nm excitation and 520 nm emission. The fluorescence intensity was normalized to the initial fluorescence intensity to express relative fluorescence increase upon fluorescence reconstitution. […] Standard curves for XFP fluorescence measurements were generated by either using reconstituted XFP or XFP purified from E. coli using GFP specific chromatography columns (Bio-Rad). XFP protein concentration was determined using the Bradford assay and absorbance readings at 280 nm with a NanoDrop 2000 (Thermo-Fisher). Samples were serially diluted (1:10 or 1:5) and 10 μL samples were imaged to reduce any non-linear fluorescence excitation effects. […]

GFP1-10 = molecular target: T2, GFP1-10 (Aequorea victoria, UniProt P42212, A206V/E111V/F64L/F99S/I128T/I167V/I171V/K166T/M153T/N105K/Q80R/S205T/S30R/S65T/V163A/Y145F/Y39I); assay: In vitro reconstitution (fluorescence complementation) of split GFP: GFP11 peptide mixed with purified GFP1-10; type: binding; design: half time of reconstitution: dose or concentration left out as unconfirmed; conditions: for observed rate constant (kobs) of GFP11 peptide binding: pseudo-first order
T2 construct: Residues 1-213 of GFP, corresponding to the first 10 beta strands of GFP (GFP1-10); made in house; host or cells: Escherichia coli BL21(DE3)
Method: FIGS. 1F-G, relating to the stoichiometric production of GFP11 reporter as a function of time using a PTR linker to allow instantaneous detection of protein translation, are graphs that illustrate that reconstitution of split GFP as a function of seconds passed. […] Within the first second of reconstitution, i.e., in milliseconds, fluorescence emission begins (FIG. 1F), and the fluorescence intensity of the reaction rose logarithmically and began to saturate after 5 minutes (FIG. 1G). […] To obtain kinetic measurements of the reconstitution reaction at sub-second timescales, an ultrasensitive fluorescence spectrophotometer was used. A stopped-flow dispenser was used to mix and deliver known volumes of GFP1-10 and GFP11 proteins. This allowed the establishment of a to for the moment split GFP components first interact. […] Fluorescence increase over time from the bimolecular reaction was modeled as pseudo-first order and fit to a one phase association curve to determine the observed rate constant (kobs) of GFP11 peptide binding for each concentration of GFP11 tested. For 50 nM GFP11 and excess GFP1-10, the kobs is 0.003 s-1.
In the volume of a medium-size cell, the slower, lowest concentration reactions would generate tens of reconstituted molecules per second, and for the average protein synthesis hundreds per second. […].
In vitro fluorescence complementation was performed by mixing purified XFP1-10 protein and chemically synthesized XFP11 peptides and the fluorescence intensity of the reaction was collected with a StepOnePlus real-time thermal cycler (Thermo-Fisher). […] XFP11 peptide was added according to different final peptide concentrations and the microplate was immediately loaded into the fluorescence reader. The fluorescence intensity was measured every 10 seconds for 45 minutes at 32° C. or 37° C. with 495 nm excitation and 520 nm emission. The fluorescence intensity was normalized to the initial fluorescence intensity to express relative fluorescence increase upon fluorescence reconstitution. […] Standard curves for XFP fluorescence measurements were generated by either using reconstituted XFP or XFP purified from E. coli using GFP specific chromatography columns (Bio-Rad). XFP protein concentration was determined using the Bradford assay and absorbance readings at 280 nm with a NanoDrop 2000 (Thermo-Fisher). Samples were serially diluted (1:10 or 1:5) and 10 μL samples were imaged to reduce any non-linear fluorescence excitation effects. […] Total fluorescence intensity (in photon counts) was collected every 0.1 s or 0.01 s for varying durations.
Pearson's linear correlations were calculated by fitting the data to a simple linear regression model, with the coefficient of determination, R2. […]

Row | Substance | onset of reconstitution upon addition of peptide (Cherry1-10; Cherry1-10 and Cherry11 in vitro, FIG. 3E) | fluorescence signal strength of reconstitution (Cherry1-10; compared with split GFP and split Dendra2) | observed rate constant (kobs) of GFP11 peptide binding (GFP1-10; 50 nM GFP11 and excess GFP1-10, one phase association fit) | half time of reconstitution (GFP1-10; one phase association fit, FIG. 1G) | observed rate constant (kobs) of GFP11 peptide binding (GFP1-10; one phase association fit, FIG. 1G, R2=0.99) | time to detection of green fluorescence upon mixing (GFP1-10; stopped-flow mixing of GFP1-10 and GFP11)
1 | Cherry11: small fragment of split mCherry red fluorescent protein; purified peptide that reconstitutes with Cherry1-10 (MGGGGSGGGGSYTIVEQYERAEGRHSTGG) | immediately | overall weaker signal compared to split GFP and split Dendra2 |  |  |  | 
2 | RDHMVLHEYVNAAGIT [GFP11] |  |  | 0.003 s⁻¹ | 95 s | 0.007 ± 0.0001 s⁻¹ | ≤ 100 ms
